Tests used:
3T3-L1 adipocytes = assay: 2-NBDG glucose uptake assay in mature 3T3-L1 adipocytes; assay type: cell-based, mouse; settings: 1, 10, 30 μM, 24 h, 0.05 nM insulin, vs DMSO
Experimental: Glucose uptake activity was determined by measuring the uptake of 2-NBDG (2-(N-(7-nitrobenz-2-oxa-1, 3-diazol-4-yl)amino)-2-deoxyglucose, Invitrogen). […] Glucose uptake was initiated by addition of 1 mM 2-NBDG diluted in PBS. After 1 h, it was terminated by removing the contents of the wells and washing the cells with PBS. The glucose uptake was quantified by measuring the fluorescence intensity of cell lysates (prepared with neutral lysis buffer) at 485 nm excitation and 528 nm emission, and normalized to the corresponding protein content.

[1] = target: T1, human PPARγ-LBD (corepressor peptide displacement) (Homo sapiens, UniProt P37231); assay: LanthaScreen TR-FRET corepressor peptide displacement assay; assay type: biochemical
T1 construct: incubated with GST-fused human PPARγ-LBD, terbium-labeled anti-GST antibody; purchased Invitrogen
T1 sequence (P37231 238-503 limits assumed): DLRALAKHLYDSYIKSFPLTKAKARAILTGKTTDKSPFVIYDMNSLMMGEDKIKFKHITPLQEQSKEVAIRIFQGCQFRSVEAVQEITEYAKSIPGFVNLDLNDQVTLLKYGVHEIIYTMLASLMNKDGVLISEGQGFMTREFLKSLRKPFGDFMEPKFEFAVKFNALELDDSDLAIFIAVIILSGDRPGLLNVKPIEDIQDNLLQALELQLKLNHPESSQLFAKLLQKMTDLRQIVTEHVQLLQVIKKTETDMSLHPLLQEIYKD
Experimental: PPARγ coregulator peptide interaction assay was performed by the LanthaScreen TR-FRET PPARγ Coactivator Assay Kit (Invitrogen) according to the manufacturer's instructions. Serial concentrations of compounds were incubated with GST-fused human PPARγ-LBD, terbium-labeled anti-GST antibody and fluorescein-labeled peptide for 4 h. The measurement and data calculation were as above.

human PPARγ LBD = target: T2, human PPARγ LBD (Homo sapiens, UniProt P37231); assay: LanthaScreen TR-FRET PPARγ competitive binding assay; settings: purified human PPARγ LBD
T2 construct: incubated with GST-fused human PPARγ-LBD, terbium-labeled anti-GST antibody; purchased Invitrogen
T2 sequence (P37231 238-503 limits assumed): T1 sequence (P37231 238-503 limits assumed)
Experimental: The LanthaScreen time-resolved fluorescence resonance energy transfer (TR-FRET) PPARγ competitive binding assay (Invitrogen) was performed according to the manufacturer's protocol. […] The FRET signal was measured by excitation at 340 nm and emission at 520 nm for fluorescein and 495 nm for terbium. In this assay, test compounds' binding to PPARγ LBD competed with Pan-PPAR Green and replaced it, resulting in a decrease of signal. The ability of binding to the PPARγ-LBD was measured by the decrease of the 520 nm/495 nm ratio. Graphs were plotted as fold changes of the FRET signal for compounds over the DMSO-only control.

[2] = tested on: osteoblast marker genes in MC3T3-E1 cells; assay: Expression of osteoblast marker genes in MC3T3-E1 cells (qPCR); assay type: cell-based
Experimental: MC3T3-E1 cells were cultured in α-MEM to confluency in 24-well plates and then cultured in differentiation medium (α-MEM supplemented with 200 μM ascorbic acid and 10 mM β-glycerophosphate) for 7, 14, and 21 days, which was replaced every 3 days. The cells were treated with DMSO, rosiglitazone, or F12016 at the start of differentiation. At day 8, 15 and 22, total RNA was isolated, and real-time PCR was performed as described below.
Total RNA was extracted using TRIzol reagent (Invitrogen). First-strand cDNA was synthesized from the total RNA using a reverse transcriptional kit (TransGen). Quantitative PCR with SYBR Green (Roche Diagnostics, Lewes, UK) was performed on a Stratagene MX3000P real-time PCR system (Agilent). Melting curves were obtained, and the specificity of PCR products was checked on agarose gels. Relative mRNA expression was determined by the ΔΔCt method and normalized to GAPDH mRNA levels.

LXRβ = target: T3, LXRβ (Homo sapiens, UniProt P55055); assay: Receptor-specific transactivation, GAL4-LBD reporter in HEK293T cells; assay type: cell-based; settings: 30 μM F12016
T3 construct: expressed in transfected cells; host or cells: HEK293T
T3 sequence (P55055 222-460 limits assumed): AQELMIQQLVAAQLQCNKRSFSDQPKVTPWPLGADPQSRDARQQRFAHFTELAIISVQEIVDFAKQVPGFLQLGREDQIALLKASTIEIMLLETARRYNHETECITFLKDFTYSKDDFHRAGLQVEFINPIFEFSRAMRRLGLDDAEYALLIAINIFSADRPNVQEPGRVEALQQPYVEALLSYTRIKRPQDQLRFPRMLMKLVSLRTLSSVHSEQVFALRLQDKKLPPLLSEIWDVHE
Experimental: (§1) HEK293T cells were cotransfected with a GAL4-pGL4-luc reporter and plasmids encoding various nuclear receptor LBDs fused with the GAL4 DNA-binding domain. […] LXR, liver X receptor; RXR, retinoid X receptor.
(§2) The determination of nuclear receptor activation was performed as previously. Briefly, HEK293T cells were transfected with GAL4-pGL4-luc reporter plasmid and pBIND-PPARγ-LBD expression plasmid using Lipofectamine 2000 (Invitrogen) for 6 h before treatment with compounds for 20–24 h. Activity was determined by the Luciferase Assay System (Promega).

PPARα = target: T4, PPARα (Homo sapiens, UniProt Q07869); assay: as above; assay type: cell-based; settings: 30 μM F12016
T4 construct: expressed in transfected cells; host or cells: HEK293T
T4 sequence (Q07869 239-466 limits assumed): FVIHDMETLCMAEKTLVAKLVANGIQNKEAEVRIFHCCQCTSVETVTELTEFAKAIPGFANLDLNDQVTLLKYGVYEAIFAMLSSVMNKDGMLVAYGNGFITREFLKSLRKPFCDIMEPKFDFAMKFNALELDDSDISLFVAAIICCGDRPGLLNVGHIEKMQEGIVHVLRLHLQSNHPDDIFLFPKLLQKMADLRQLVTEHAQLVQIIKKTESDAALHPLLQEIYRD
Experimental: as §1, §2

RXR = assay: as above; assay type: cell-based; settings: 30 μM F12016
Experimental: as §1, §2

[3] = target: T5, CDK5 (substrate Rb protein) (Homo sapiens, UniProt Q00535); assay: In vitro CDK5-mediated phosphorylation of Rb protein; assay type: biochemical
T5 construct: purchased Millipore
T5 sequence (Q00535 whole entry): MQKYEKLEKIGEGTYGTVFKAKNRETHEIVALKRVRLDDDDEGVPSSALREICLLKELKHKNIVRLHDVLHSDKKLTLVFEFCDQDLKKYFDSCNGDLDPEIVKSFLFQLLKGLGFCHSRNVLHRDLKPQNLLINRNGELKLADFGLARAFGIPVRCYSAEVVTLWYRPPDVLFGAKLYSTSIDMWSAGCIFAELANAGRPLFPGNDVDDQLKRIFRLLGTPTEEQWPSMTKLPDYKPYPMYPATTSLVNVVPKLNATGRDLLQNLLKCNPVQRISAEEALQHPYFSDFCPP
T5 sequence (Q15078 99-307 partner limits assumed): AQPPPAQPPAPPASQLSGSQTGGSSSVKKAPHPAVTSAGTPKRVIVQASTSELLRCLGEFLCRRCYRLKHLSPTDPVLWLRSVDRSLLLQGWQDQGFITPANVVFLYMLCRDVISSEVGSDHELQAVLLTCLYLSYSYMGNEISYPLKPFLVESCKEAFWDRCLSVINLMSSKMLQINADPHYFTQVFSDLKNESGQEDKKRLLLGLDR

2-[2-(1, 2-dimethyl-1H-indol-3-yl)-2-oxo-acetylamino]-benzamide [Compound F12016]
insulin-stimulated glucose uptake (2-NBDG) (3T3-L1 adipocytes): enhanced the insulin-stimulated glucose uptake | EC50/IC50 NCoR ([1]; corepressor peptide NCoR): 4.425 µM | Efficacy NCoR ([1]; corepressor peptide NCoR, relative to rosiglitazone): 91% | EC50/IC50 SMRT ([1]; corepressor peptide SMRT): 2.861 µM | Efficacy SMRT ([1]; corepressor peptide SMRT, relative to rosiglitazone): 58% | displacement of corepressors NCoR and SMRT ([1]; dose-dependent, similar degree as rosiglitazone): able to efficiently displace corepressors | IC50 (human PPARγ LBD): 36.3 µM | Ki (human PPARγ LBD): 13 µM | expression of Alp and Col1 ([2]; 7 days): increased expressions of Alp and Col1 | expression of RANKL ([2]; 7 days, rosiglitazone 1 μM, compared with control): not significantly changed | expression of Ibsp and Bglap ([2]; Ibsp 14 days, Bglap 21 days): did not show any significant reductions | transactivation of LXRβ (LXRβ): no effects | transactivation of PPARα (PPARα): no effects | transactivation of RXR (RXR): no effects | phosphorylation of CDK5 substrate Rb protein [3]: no effect

From PMC4381330, “Identification of a novel selective agonist of PPARγ with no promotion of adipogenesis and less inhibition of osteoblastogenesis” (Scientific Reports, 2015)
